Laboratory results from patent US7205295B2, “Benzoxazin-3-ones and derivatives thereof as therapeutic agents” (Warner-Lambert Company LLC, priority 2002, dated 2007).
Counter-ions that a name gives are not always drawn.

What follows are molecules tested against T1, PI3Kγ (p101/p110γ protein) (Homo sapiens, UniProt P48736) (assay: PI3Kγ In Vitro Kinase Assay). Conditions: purified recombinant p101/p110γ with G protein β1/γ2 subunits; 20 μM ATP, 25 μM PIP2; 20 minutes at room temperature.
T1 construct: HA; made in house; host or cells: Spodoptera frugiperda (Sf9) cells, baculovirus co-infection
T1 sequence (P48736 whole entry, species assumed): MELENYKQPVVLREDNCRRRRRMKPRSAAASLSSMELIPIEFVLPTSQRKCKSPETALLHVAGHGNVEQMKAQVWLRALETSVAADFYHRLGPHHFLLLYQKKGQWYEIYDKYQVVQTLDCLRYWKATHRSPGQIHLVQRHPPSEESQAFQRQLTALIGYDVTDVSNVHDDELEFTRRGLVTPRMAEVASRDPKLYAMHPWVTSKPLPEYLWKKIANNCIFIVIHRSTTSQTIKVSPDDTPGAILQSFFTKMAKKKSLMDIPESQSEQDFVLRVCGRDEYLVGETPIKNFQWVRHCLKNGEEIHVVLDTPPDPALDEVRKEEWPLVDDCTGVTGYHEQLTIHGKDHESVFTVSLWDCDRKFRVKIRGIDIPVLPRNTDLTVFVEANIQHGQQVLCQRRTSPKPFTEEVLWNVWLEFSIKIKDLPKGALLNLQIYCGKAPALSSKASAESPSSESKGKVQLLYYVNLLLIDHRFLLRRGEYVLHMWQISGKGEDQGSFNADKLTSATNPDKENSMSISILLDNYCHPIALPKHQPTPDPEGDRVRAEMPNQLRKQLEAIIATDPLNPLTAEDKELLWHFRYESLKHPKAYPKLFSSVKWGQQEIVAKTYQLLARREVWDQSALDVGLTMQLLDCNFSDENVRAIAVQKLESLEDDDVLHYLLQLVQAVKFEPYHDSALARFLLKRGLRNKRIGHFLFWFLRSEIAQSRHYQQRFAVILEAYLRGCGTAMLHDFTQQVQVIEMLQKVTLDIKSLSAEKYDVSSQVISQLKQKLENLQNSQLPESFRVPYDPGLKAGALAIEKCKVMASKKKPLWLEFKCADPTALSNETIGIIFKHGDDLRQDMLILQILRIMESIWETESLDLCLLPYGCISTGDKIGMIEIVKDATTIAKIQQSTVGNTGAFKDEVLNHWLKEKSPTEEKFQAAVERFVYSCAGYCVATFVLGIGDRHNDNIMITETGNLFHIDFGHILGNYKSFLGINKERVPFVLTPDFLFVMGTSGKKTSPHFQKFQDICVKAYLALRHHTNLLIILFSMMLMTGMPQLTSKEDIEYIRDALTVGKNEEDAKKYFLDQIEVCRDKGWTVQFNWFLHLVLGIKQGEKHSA
T1 sequence (Q8WYR1 whole entry partner, species assumed): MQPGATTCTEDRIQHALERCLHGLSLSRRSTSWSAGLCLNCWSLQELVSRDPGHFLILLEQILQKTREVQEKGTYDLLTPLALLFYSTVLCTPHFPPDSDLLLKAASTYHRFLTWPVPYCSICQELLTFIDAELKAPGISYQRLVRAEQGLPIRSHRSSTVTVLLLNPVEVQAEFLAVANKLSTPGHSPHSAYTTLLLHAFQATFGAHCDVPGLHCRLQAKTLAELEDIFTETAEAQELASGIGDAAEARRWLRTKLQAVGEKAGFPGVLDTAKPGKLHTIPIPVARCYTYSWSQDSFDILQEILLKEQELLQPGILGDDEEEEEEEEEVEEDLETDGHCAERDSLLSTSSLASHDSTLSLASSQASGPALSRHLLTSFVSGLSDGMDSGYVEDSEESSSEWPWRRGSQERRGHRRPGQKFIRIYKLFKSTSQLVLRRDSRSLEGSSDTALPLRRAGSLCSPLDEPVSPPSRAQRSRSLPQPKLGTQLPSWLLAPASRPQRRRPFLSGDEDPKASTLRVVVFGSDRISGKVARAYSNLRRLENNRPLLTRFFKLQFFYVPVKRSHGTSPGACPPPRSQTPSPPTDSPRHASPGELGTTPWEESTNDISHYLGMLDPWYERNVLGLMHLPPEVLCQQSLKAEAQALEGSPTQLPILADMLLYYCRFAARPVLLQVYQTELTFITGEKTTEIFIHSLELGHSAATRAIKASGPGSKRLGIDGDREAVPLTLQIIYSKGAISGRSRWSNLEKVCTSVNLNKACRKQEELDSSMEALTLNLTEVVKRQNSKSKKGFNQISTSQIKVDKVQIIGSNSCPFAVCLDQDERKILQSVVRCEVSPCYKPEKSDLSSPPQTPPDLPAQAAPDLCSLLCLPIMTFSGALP
Type: biochemical
Outline: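 Sf9-expressed, purified human p101/p110γ (2.7 nM) was activated by Gβ1/γ2 (57.7 nM) and reacted with 20 μM ATP plus [γ-32P]ATP on PIP2 (25 μM)/PE (300 μM) micelles with 10 mM MgCl2 in HEPES buffer. Reactions ran 20 min at room temperature. Filter-captured radiolabeled PIP3 was counted by scintillation.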
With `CN1CCN(Cc2cc(CN3C(=O)COc4ccc(C=C5SC(=S)NC5=O)cc43)cc(C(C)(C)C)c2)CC1` [Example 222, 4-[3-tert-Butyl-5-(4-methyl-piperazin-1-ylmethyl)-benzyl]-6-(4-oxo-2-thioxo-thiazolidin-5-ylidenemethyl)-4H-1,4-benzoxazin-3-one] the IC50 was 6 nM. With `O=C1NC(=S)SC1=Cc1ccc2c(c1)N(Cc1ccc(Cl)cc1)C(=O)CO2` [Example 179, 4-(4-Chloro-benzyl)-6-(4-oxo-2-thioxo-thiazolidin-5-ylidenemethyl)-4H-1,4-benzoxazin-3-one] the IC50 was 7 nM. `O=C1NC(=S)SC1=Cc1ccc2c(c1)N(CCc1ccccc1)C(=O)CO2` [Example 5, 6-(4-Oxo-2-thioxo-thiazolidin-5-ylidenemethyl)-4-phenethyl-4H-1,4-benzoxazin-3-one] was tested, and the IC50 was 25 nM. `O=C1NC(=S)SC1=Cc1ccc2c(c1)N(Cc1ccc(F)c(F)c1)C(=O)CO2` [Example 312, 4-(3,4-Difluoro-benzyl)-6-(4-oxo-2-thioxo-thiazolidin-5-ylidenemethyl)-4H-1,4-benzoxazin-3-one] showed an IC50 of 3 nM. Work on “8-Fluoro-4-(3-morpholin-4-yl-propyl)-6-(4-oxo-2-thioxo-thiazolidin-5-ylidenemethyl)-4H-benzo[1,4]oxazin-3-one [Example 242]” yielded an IC50 of 55 nM. `Cc1cc(CN2C(=O)COc3ccc(C=C4SC(=S)NC4=O)cc32)cc(-c2c(C)noc2C)c1` [Example 117, 4-[3-(3,5-Dimethyl-isoxazol-4-yl)-5-methyl-benzyl]-6-(4-oxo-2-thioxo-thiazolidin-5-ylidenemethyl)-4H-benzo[1,4]oxazin-3-one] showed an IC50 of 40 nM. With `O=C1NC(=S)SC1=Cc1cc(F)c2c(c1)N(CCc1ccc(Cl)c(Cl)c1)C(=O)CO2` [Example 111, 4-[2-(3,4-dichloro-phenyl)-ethyl]-8-fluoro-6-(4-oxo-2-thioxo-thiazolidin-5-ylidenmethyl)-4H-benzo[1,4]oxazin-3-one] the IC50 was 14 nM. Molecule `O=C1NC(=S)SC1=Cc1ccc2c(c1)N(Cc1cccc(C(F)(F)F)c1)C(=O)CO2` [Example 157, 6-(4-Oxo-2-thioxo-thiazolidin-5-ylidenemethyl)-4-(3-trifluoromethyl-benzyl)-4H-1,4-benzoxazin-3-one] has an IC50 of 21 nM. With `NC(=O)c1cccc(CN2C(=O)COc3ccc(C=C4SC(=S)NC4=O)cc32)c1` [Example 172, 3-[3-Oxo-6-(4-oxo-2-thioxo-thiazolidin-5-ylidenemethyl)-2,3-dihydro-1,4-benzoxazin-4-ylmethyl]-benzamide] the IC50 was 145 nM. Molecule `COc1cc(CN2C(=O)COc3ccc(C=C4SC(=S)NC4=O)cc32)cc(Cl)n1` [Example 205, 4-(2-Chloro-6-methoxy-pyridin-4-ylmethyl)-6-(4-oxo-2-thioxo-thiazolidin-5-ylidenemethyl)-4H-benzo[1,4]oxazin-3-one] has an IC50 of 32 nM. Work on `O=C1COc2ccc(C=C3SC(=S)N(c4ccccc4)C3=O)cc2N1Cc1ccc(Cl)s1` [Example 316, 4-(5-Chloro-thiophen-2-ylmethyl)6-(4-oxo-3-phenyl-2-thioxo-thiazolidin-5-ylidenemethyl)-4H-benzo[1,4]oxazin-3-one] yielded an IC50 of 3700 nM. Molecule `CC(C)(C)c1ccc(CN2C(=O)COc3ccc(C=C4SC(=S)NC4=O)cc32)cc1` [Example 184, 4-(4-tert-Butyl-benzyl)-6-(4-oxo-2-thioxo-thiazolidin-5-ylidenemethyl)-4H-1,4-benzoxazin-3-one] has an IC50 of 3 nM. For `O=C1NC(=O)C(=Cc2ccc3c(c2)N(CC2CCCCC2)C(=O)CO3)S1` [Example 258, 5-(4-Cyclohexylmethyl-3-oxo-3,4-dihydro-2H-1,4-benzoxazin-6-ylmethylene)-thiazolidine-2,4-dione], the IC50 was 4 nM. Work on `CC(C)n1cnc2cc(CN3C(=O)COc4ccc(C=C5SC(=S)NC5=O)cc43)ccc21` [Example 335, 4-(1-Isopropyl-1H-benzimidazol-5-ylmethyl)-6-(4-oxo-2-thioxo-thiazolidin-5-ylidenemethyl)-4H-1,4-benzoxazin-3-one] yielded an IC50 of 34 nM. With `O=C1NC(=O)/C(=C/c2ccc3c(c2)N(Cc2cc(C(F)(F)F)cc(C(F)(F)F)c2)C(=O)CO3)S1` [Example 272, 5-[1-[4-(3,5-Bis-trifluoromethyl-benzyl)-3-oxo-3,4-dihydro-2H-benzo[1,4]oxazin-6-yl]-meth-(Z)-ylidene]-thiazolidine-2,4-dione] the IC50 was 70 nM. In the case of `O=C1NC(=O)C(=Cc2ccc3c(c2)N(Cc2ccc(OCc4ccccc4)cc2)C(=O)CO3)S1` [Example 249, 5-[4-(4-Benzyloxy-benzyl)-3-oxo-3,4-dihydro-2H-1,4-benzoxazin-6-ylmethylene]-thiazolidine-2,4-dione], the IC50 is reported as 8 nM. `O=C1NC(=O)C(=Cc2ccc3c(c2)N(Cc2ccoc2)C(=O)CO3)S1` [Example 338, 5-(4-Furan-3-ylmethyl-3-oxo-3,4-dihydro-2H-1,4-benzoxazin-6-ylmethylene)-thiazolidine-2,4-dione] was tested, and the IC50 was 12 nM. With `CC(C)(C)c1cc(CN2C(=O)COc3c(F)cc(CC4SC(=S)NC4=O)cc32)cc(C(C)(C)O)c1` (stereo not drawn) [Example 236, 4-[3-tert-Butyl-5(1-hydroxy-1-methyl-ethyl)-benzyl]-8-fluoro-6-(4-oxo-2-thioxo-thazolidin-5-ylmethyl)-4H-benzo[1,4]oxazin-3-one] the IC50 was 5 nM. `O=C1NC(=S)SC1=Cc1ccc2c(c1)N(Cc1cc(Cl)nc(Cl)c1)C(=O)CO2` [Example 225, 4-(2,6-Dichloro-pyridin-4-ylmethyl)-6-(4-oxo-2-thioxo-thiazolidin-5-ylidenemethyl)-4H-1,4-benzoxazin-3-one] gave an IC50 of 49 nM. `O=C1NC(=O)C(=Cc2ccc3c(c2)N(Cc2ccncc2)C(=O)CO3)S1` [Example 227, 5-(3-Oxo-4-pyridin-4-ylmethyl-3,4-dihydro-2H-1,4-benzoxazin-6-ylmethylene)-thiazolidine-2,4-dione] was tested, and the IC50 was 48 nM. Work on `CC(C)(C)c1cc(CN2C(=O)COc3ccc(C=C4SC(=O)NC4=O)cc32)cc(C(C)(C)C)c1` [Example 85, 5-[4-(3,5-Di-tert-butyl-benzyl)-3-oxo-3,4-dihydro-2H-1,4-benzoxazin-6-ylmethylene]-thiazolidine-2,4-dione] yielded an IC50 of 21 nM. `O=C1NC(=S)SC1=Cc1ccc2c(c1)N(Cc1ccc(Cl)c(C(F)(F)F)c1)C(=O)CO2` [Example 194, 4-(4-Chloro-3-trifluoromethylbenzyl)-6-(4-oxo-2-thioxo-thiazolidin-5-ylidenemethyl)-4H-1,4-benzoxazin-3-one, Potassium Salt] gave an IC50 of 6 nM. With `CN(C)S(=O)(=O)c1cccc(CN2C(=O)COc3ccc(C=C4SC(=S)NC4=O)cc32)c1` [Example 262, N,N-Dimethyl-3-[3-oxo-6-(4-oxo-2-thioxo-thiazolidin-5-ylidenemethyl)-2,3-dihydro-1,4-benzoxazin-4-ylmethyl]-benzenesulfonamide] the IC50 was 19 nM. For `O=C1NC(=S)SC1=Cc1ccc2c(c1)N(Cc1ccccc1SC(F)(F)F)C(=O)CO2` [Example 169, 6-(4-Oxo-2-thioxo-thiazolidin-5-ylidenemethyl)-4-(2-trifluoromethylsulfanyl-benzyl)-4H-1,4-benzoxazin-3-one], the IC50 was 8 nM. `Cc1cc(CN2C(=O)COc3ccc(C=C4SC(=S)NC4=O)cc32)nn1C(C)(C)C` [Example 326, 4-(1-tert-Butyl-5-methyl-1H-pyrazol-3-ylmethyl)-6-(4-oxo-2-hioxo-thiazolidin-5-ylidenemethyl)-4H-benzo[1,4]oxazin-3-one] was tested, and the IC50 was 25 nM. Molecule `O=C1NC(=S)SC1=Cc1cc(F)c2c(c1)N(Cc1ccc(F)c(C(F)(F)F)c1)C(=O)CO2` [Example 292, 8-Fluoro-4-(4-fluoro-3-trifluoromethyl-benzyl)-6-(4-oxo-2-thioxo-thiazolidin-5-ylidenemethyl)-4-H-benzo[1,4]oxazin-3-one] has an IC50 of 11 nM. With `CC(C)(O)c1cc(Cl)cc(CN2C(=O)COc3c(F)cc(C=C4SC(=S)NC4=O)cc32)c1` [Example 293, 4-[3-Chloro-5-(1-hydroxy-1-methyl-ethyl)-benzyl]-8-fluoro-6-(4-oxo-2-thioxo-thiazoldin-5-ylidenemethyl)-4H-benzo[1,4]oxazin-3-one; Compound with Ethane-1,2-diamine] the IC50 was 15 nM. Molecule `COc1cc(CN2C(=O)COc3ccc(C=C4SC(=S)NC4=O)cc32)cc(OC)c1` [Example 26, 4-(3,5-Dimethoxy-benzyl)-6-(4-oxo-2-thioxo-thiazolidin-5-ylidenemethyl)-4H-1,4-benzoxazin-3-one] has an IC50 of 9 nM. `O=C1NC(=S)S/C1=C\c1ccc2c(c1)N(Cc1ccc(I)cc1)C(=O)CO2` [Example 287, 4-(4-Iodo-benzyl)-6-[4-oxo-2-thioxo-thiazolidin-(5Z)-ylidenemethyl]-4H-benzo[1,4]oxazin-3-one] gave an IC50 of 16 nM. For `Cc1cc(CN2C(=O)COc3ccc(C=C4SC(=O)NC4=O)cc32)cc(C)n1` [Example 230, 5-[4-(2,6-Dimethyl-pyridin-4-ylmethyl)-3-oxo-3,4-dihydro-2H-1,4-benzoxazin-6-ylmethylene]-thiazolidine-2,4-dione], the IC50 was 43 nM. `CC(C)CCN1C(=O)COc2ccc(C=C3SC(=S)NC3=O)cc21` [Example 144, 4-(3-Methyl-butyl)-6-(4-oxo-2-thioxo-thiazolidin-5-ylidenemethyl)-4H-benzo[1,4]oxazin-3-one] showed an IC50 of 24 nM. Molecule `CC(C)(C)OC(=O)N1CCN(C(=O)CN2C(=O)COc3ccc(C=C4SC(=S)NC4=O)cc32)CC1` [Example 214, 4-{2-[3-Oxo-6-(4-oxo-2-thioxo-thiazolidin-5-ylidenemethyl)-2,3-dihydro-1,4-benzoxazin-4-yl]-acetyl}-piperazine-1-carboxylic acid tert-butyl ester] has an IC50 of 3180 nM. Work on `CC(C)c1cc(CN2C(=O)COc3ccc(C=C4SC(=S)NC4=O)cc32)cc(C(C)C)c1` [Example 210, 4-(3,5-Diisopropyl-benzyl)-6-(4-oxo-2-thioxo-thiazolidin-5-ylidenemethyl)-4H-benzo[1,4]oxazin-3-one] yielded an IC50 of 45 nM.
